Assay: solubility in water (stated in words, no method described)
Type: physicochemical
Conditions: qualitative statement

Row | solubility in water | SMILES
1 | good solubility in water | CNS(=O)(=O)Cc1ccc2[nH]cc(CCN(C)C)c2c1 [Sumatriptane, 1-[3-(2-dimethylaminoethyl)-1H-indol-5-yl]-N-methyl-methanesulfonamide]
2 | very well soluble in water | COc1ccc2cc(CCC(C)=O)ccc2c1 [Nabumetone, 4-(6-methoxy-2-nafthyl)-2-butanon]

Source: US11771648B2, “Carrier for oromucosal administration of physiologically active substances” (INSTAR TECHNOLOGIES A.S., priority 2011, dated 2023)
